Laboratory results from patent US20260258064A1 (SIRONAX LTD., priority 2023, published 2026).

target: T1, SARM1 (50-724) (Homo sapiens, UniProt Q6SZW1); test: SARM1 (50-724) enzymatic assay (LC-MS/MS); type: biochemical; conditions: Purified SARM1 (50-724) 2 nM, NMN as activator, NAD+ as substrate, 1 h at room temperature, read-out: IC50 (SARM1 inhibitory activity)
T1 construct: Purified SARM1 (50-724) with a final concentration of 2 nM was pre-incubated with a test compound
T1 sequence (Q6SZW1 50-724): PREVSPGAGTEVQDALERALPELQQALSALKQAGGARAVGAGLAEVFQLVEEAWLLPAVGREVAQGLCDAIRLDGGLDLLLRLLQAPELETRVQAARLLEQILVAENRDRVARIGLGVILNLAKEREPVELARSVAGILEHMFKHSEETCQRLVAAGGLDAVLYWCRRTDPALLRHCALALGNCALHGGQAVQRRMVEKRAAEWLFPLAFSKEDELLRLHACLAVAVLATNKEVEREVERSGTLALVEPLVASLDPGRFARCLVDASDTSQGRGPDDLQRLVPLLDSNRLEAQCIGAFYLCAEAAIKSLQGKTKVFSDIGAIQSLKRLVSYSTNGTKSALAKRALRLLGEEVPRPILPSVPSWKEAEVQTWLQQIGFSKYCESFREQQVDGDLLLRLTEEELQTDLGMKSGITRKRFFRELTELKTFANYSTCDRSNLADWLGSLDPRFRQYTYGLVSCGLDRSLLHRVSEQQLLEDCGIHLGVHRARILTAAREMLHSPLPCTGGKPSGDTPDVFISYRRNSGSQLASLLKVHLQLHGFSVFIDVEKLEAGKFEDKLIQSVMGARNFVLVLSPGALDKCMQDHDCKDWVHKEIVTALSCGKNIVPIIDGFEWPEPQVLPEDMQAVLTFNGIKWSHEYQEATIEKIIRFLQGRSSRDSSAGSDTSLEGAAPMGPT
How it was run: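 Human SARM1 (50-724), 2 nM, pre-incubated 15 min at room temperature with compound in Dulbecco's PBS. Reaction started with 200 µM NMN (activator) plus […] NAD^+ substrate, run 1 h at room temperature, quenched with 70% acetonitrile. Turnover quantified by LC-MS/MS; IC50 reported.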

| Compound | IC50 |
| --- | --- |
| O=c1[nH]nc(-c2nc3cc(C(F)(F)F)ccc3[nH]2)n1-c1cccc(Cl)c1Cl [Compound 36, 4-(2,3-dichlorophenyl)-5-(5-(trifluoromethyl)-1H-benzo[d]imidazol-2-yl)-2,4-dihydro-3H-1,2,4-triazol-3-one] | 100 to 500 nM |
| FC(F)(F)c1ccncc1-n1cnnc1-c1nc2c(N3CC4(COC4)C3)c(Cl)ccc2[nH]1 [Compound 357, 6-(5-chloro-2-(4-(4-(trifluoromethyl)pyridin-3-yl)-4H-1,2,4-triazol-3-yl)-1H-benzo[d]imidazol-4-yl)-2-oxa-6-azaspiro[3.3]heptane] | > 1000 nM |
| Cc1nccc(C(F)(F)F)c1-n1cnnc1-c1nc2cc(C(F)(F)F)ccc2[nH]1 [Compound 246, 2-(4-(2-methyl-4-(trifluoromethyl)pyridin-3-yl)-4H-1,2,4-triazol-3-yl)-5-(trifluoromethyl)-1H-benzo[d]imidazole] | ≤ 100 nM |
| C=C(F)Cc1cc(F)c2[nH]c(-c3nncn3-c3cnccc3C(F)(F)F)nc2c1 [Compound 316, 7-fluoro-5-(2-fluoroallyl)-2-(4-(4-(trifluoromethyl)pyridin-3-yl)-4H-1,2,4-triazol-3-yl)-1H-benzo[d]imidazole] | ≤ 100 nM |
| CS(=O)(=O)Cc1nnc(-c2nc3cc(C4CC4)cc(F)c3[nH]2)n1-c1cnccc1C(F)(F)F [Compound 283, 5-cyclopropyl-7-fluoro-2-(5-((methylsulfonyl)methyl)-4-(4-(trifluoromethyl)pyridin-3-yl)-4H-1,2,4-triazol-3-yl)-1H-benzo[d]imidazole] | ≤ 100 nM |
| CON(C)Cc1nnc(-c2nc3cc(C(F)(F)F)ccc3[nH]2)n1-c1cccc(F)c1Cl [Compound 382, N-((4-(2-chloro-3-fluorophenyl)-5-(5-(trifluoromethyl)-1H-benzo[d]imidazol-2-yl)-4H-1,2,4-triazol-3-yl)methyl)-N,O-dimethylhydroxylamine] | ≤ 100 nM |
| Cc1ccc2[nH]c(-c3cc(C(N)=O)cn3C3CCCC3)nc2c1 [Compound 20, 1-cyclopentyl-5-(5-methyl-1H-benzo[d]imidazol-2-yl)-1H-pyrrole-3-carboxamide] | 500 to 1000 nM |
| Cc1cnc(-c2cc(F)c3[nH]c(-c4nncn4-c4cnccc4C(F)(F)F)nc3c2)s1 [Compound 409, 2-[7-fluoro-2-[4-[4-(trifluoromethyl)-3-pyridyl]-1,2,4-triazol-3-yl]-1H-benzimidazol-5-yl]-5-methyl-thiazole] | ≤ 100 nM |
| Cn1cc(-c2cnccc2C(F)(F)F)c(-c2nc3c(Cl)c(Cl)ccc3[nH]2)cc1=O [Compound 393, 4-(4,5-dichloro-1H-benzo[d]imidazol-2-yl)-1-methyl-4′-(trifluoromethyl)-[3,3′-bipyridin]-6(1H)-one] | 500 to 1000 nM |

Next, values leading:

| IC50 | Compound |
| --- | --- |
| ≤ 100 nM | CC(c1ccncc1)c1cc(F)c2[nH]c(-c3nnccc3-c3cnccc3C(F)(F)F)nc2c1 (centres unmarked) [Compound 460, 7-fluoro-5-(1-(pyridin-4-yl)ethyl)-2-(4-(4-(trifluoromethyl)pyridin-3-yl)pyridazin-3-yl)-1H-benzo[d]imidazole] |
| ≤ 100 nM | Cn1cc(-c2cccc(Cl)c2Cl)c(-c2nc3cc(C(F)(F)F)ccc3[nH]2)cc1=O [Example 48] |
| > 1000 nM | CS(=O)(=O)c1c(Br)ccc2[nH]c(-c3nncn3-c3cccc(Cl)c3Cl)nc12 [Example 95, 5-bromo-2-(4-(2,3-dichlorophenyl)-4H-1,2,4-triazol-3-yl)-4-(methylsulfonyl)-1H-benzo[d]imidazole] |
| ≤ 100 nM | Fc1cc(C2(F)CC2)cc2nc(-c3nnccc3-c3nnccc3C(F)(F)F)[nH]c12 [Compound 466, 7-fluoro-5-(1-fluorocyclopropyl)-2-(4-(trifluoromethyl)-[3,4′-bipyridazin]-3′-yl)-1H-benzo[d]imidazole] |
| ≤ 100 nM | CC1CCN(c2cc(F)c3[nH]c(-c4nncn4-c4cnccc4C(F)(F)F)nc3c2)C1 (centres unmarked) [Compound 436, 4-fluoro-6-(3-methylpyrrolidin-1-yl)-2-(4-(4-(trifluoromethyl)pyridin-3-yl)-4H-1,2,4-triazol-3-yl)-1H-benzo[d]imidazole] |
